In series [1] the test system is platelet thromboxane generation. The series is described as follows: Inhibition of platelet thromboxane generation (TxB2, collagen-stimulated human platelet rich plasma). To be noted: 10 min, read-out: Activity IC50 (50% inhibition of TxB2 generation). The class given is cell-based. How it is done: The compounds used according to the invention as anti-thrombotics were tested by the following method for their ability to inhibit platelet thromboxane generation.
Human venous blood was collected from healthy male donors, who had denied any medication in the previous 14 days. Nine volumes of blood were mixed with one volume of 3.24% trisodium citrate. The citrated blood was centrifuged at 160 g for 10 mins. at 22° C. to obtain platelet rich plasma (PRP). The platelets were then counted on a Coulter counter, and the platelet count was adjusted to 200,000 per μl with plasma.
The PRP was then dispensed as aliquots into micro-Eppendorf tubes, maintained at 37° C. in a dry bath. The compounds dissolved either in saline, ethanol, or DMSO were added in duplicate to the PRP aliquots to produce final concentrations of 0.3, 3 and 30 μg/ml. When ethanol and DMSO were used as the vehicle, triplicate controls containing the same percentage of vehicle as the test compounds were made. The final concentration or organic solvent was never more than 0.1%, which in previous experiments had no effect on TxB2 generation.
Following a 10 min. incubation with test compounds or vehicle, collagen was added to produce a final concentration of 8 μg/ml. The tubes were then whirly-mixed for 15 seconds and replaced in the dry bath for a further 10 minutes, controls received saline instead of collagen. The reaction was then stopped by rapid centrifugation, 15,000 g for 3 mins. The plasma was removed and frozen at -29° C. until assayed.
Briefly, 100 μl aliquots, in tricine buffered saline+0.8% gelatin (pH 8.0) of the following were incubated together for 1 hour at 37° C.: thromboxane Tx B2 (plasma extract, spiked plasma extract or standards 20 to 20,000 pg/ml), ^3 H--TxB2 (approximately 15,000 dpm) and anti-TxB2 antiserum (0.5 μg/100 μl). The free and protein bound ^3 H--TxB2 were separated by ammonium sulphate precipitation followed by centrifugation. 300 μl of the supernatant was added to an aqueous scintillation fluid, and the radioactivity present was counted in a liquid scintillation counter. The binding of ^3 H--TxB2 in the absence of added TxB2 was approximately 55%. The least amount of TxB2 to be detected accurately in the plasma was 0.08 ng/ml. Cross reactivity with other prostaglandins is less than 0.005% except PGD2 which is 1%.
Thus plasma samples were assayed to give a rough approximation of TxB2 content. The plasma was then appropriately diluted and assayed in duplicate to give accurate values.
The amount of TxB2 generated by the collagen was calculated by subtracting mean values obtained for the saline stimulated platelets from the mean values obtained from the collagen stimulated platelets. Then the amount of TxB2 generated in the presence of each concentration of compound was expressed as a % control and dose response curves were then constructed to determine the concentration of compound which produced a 50% inhibition.

Series [2] relates to Trichophyton mentagrophytes. In words: Experimental Trichophyton mentagrophytes infection in guinea pigs. The series is classed as in vivo. An excerpt: Effect of oral or topical administration of HC274, HC344, Clotrimazole, and Ketoconazole on experimental Trichophyton mentagrophytes infection in guinea pigs.
*Based on degree of hair loss, erythema, desquamation, Max. = 100
Treatments administered in Carbopol® gel, once daily days 5-10.

For series [3], the system named is C. albicans. The series is described as follows: Recovery of viable candida cells from the kidneys of infected mice (p.o. and i.v. treatment). The class given is in vivo. To be noted: 25 mg/kg 1 h and 24 h after infection. How it is done: Mice receive 25×10^4 cells of C. albicans i.v. Treatments (25 mg/kg) administered in PEG/Dextrose 1 h and 24 h after infection. Animals sacrified 48 h after infection and kidneys excised, weighed, homogenized and decimal dilutions spread on glucose-peptone agar.

A further series concerns candida. In words: Intravenous administration: recovery of viable candida cells from the kidneys of infected mice. The class given is in vivo. The settings on record: 25 mg/ml.
Series [4] relates to C. albicans. The series is described as follows: Vaginal candida infection in rats, oral or topical treatment. The series is classed as in vivo. The text has this: Effect of oral or topical administration of HC274 and ketoconazole on vaginal candida infection in rats. Clearance of C. albicans from rat vagina following oral or topical treatment (as percentage of control).
Topical treatment: 1% solution in polyethylene glycol administrated twice daily for 3 days.
Oral treatment: Once daily for 3 days.

The subject of the next series is candida albicans. The series is described as follows: Oral treatment: recovery of viable candida albicans from the kidneys of infected mice. The class given is in vivo. An excerpt: Effect of oral treatment with HC274, HC316, HC390, HC415 and Ketoconazole on the recovery of viable candida albicans from the kidneys of infected mice.
Where [5] appears, read: collagen 8 μg/ml, human PRP, 10 min. incubation, 37° C.
The mark [6] stands for this setting: topical, 1% w/w in Carbopol gel once daily days 5-10, day 10 after infection.
Where [7] appears, read: topical, 1% w/w in Carbopol gel, day 5 after infection.
Where [8] appears, read: topical, 1% solution in polyethylene glycol twice daily for 3 days.

Structures can show the parent of a compound that is named as a salt. Where two headings read alike, the source gives them in different places. Bounds are passed on as bounds.

Turning to `Clc1cccc(Cl)c1NN=C(Cn1ccnc1)c1ccccc1` [HC 368, 1-phenyl-2-(1H-imidazol-1-yl)ethanone, 2,6-dichlorophenylhydrazone, hydrochloride], the IC50 in series [1] (setting [5]) was determined as 0.8 µM.

Regarding `O=[N+]([O-])c1cccc(C(Cn2ccnc2)=NNc2c(Cl)cccc2Cl)c1` [HC 402, 1-(3-nitrophenyl)-2-(1H-imidazol-1-yl)ethanone, 2,6-dichlorophenylhydrazone, hydrochloride], the IC50 in series [1] (Homo sapiens) is 0.7 µM.

Consider `N#Cc1ccc(C(Cn2ccnc2)=NNc2c(Cl)cccc2Cl)cc1` [HC 416, 1-(4-cyanophenyl)-2-(1H-imidazol-1-yl)ethanone, 2,6-dichlorophenylhydrazone, hydrochloride], for which the IC50 in series [1] (setting [5]) was 13.8 µM.

Broadly, the LD50 is the dose expected to kill half of the subjects tested. Consider `Clc1ccc(/C(Cn2ccnc2)=N/Nc2c(Cl)cccc2Cl)cc1` [HC344, (Z)-1-(4-chlorophenyl)-2-(1H-imidazol-1-yl) ethanone, 2,6-dichlorophenylhydrazone, hydrochloride], for which the LD50 at 168 h in “in vivo” (mouse, in vivo, ip, male mice, 7 day, read-out: LD50) was 780 mg/kg. This compound displayed an LD12.5 in “in vivo” (p.o., male mice, 7 day) of more than 1500 mg/kg. The “Disease rating (degree of hair loss, erythema, desquamation, Max. = 100)” value in series [2] (setting [6]) is listed as 24.6; in series [2] (setting [7]), 100.

For `Clc1ccc(C(Cn2ccnc2)OCc2ccsc2Cl)c(Cl)c1` (centres unmarked) [Tioconazole, 1-[2-[(2-Chloro-3-thienyl)methoxy]-2-(2,4-dichlorophenyl)ethyl]-1H-imidazole], the “No. of CFU/g kidney at 48 h” value in the series with C. albicans [3] (i.v.) is recorded as 1.2 × 10^3 CFU/g kidney. In addition, in the series with C. albicans [3] (p.o.), the “No. of CFU/g kidney at 48 h” value is recorded as 2.2 × 10^3 CFU/g kidney. The LD12.5 in “in vivo” (mouse, in vivo, po) was more than 500 mg/kg. In the series with candida, the CFU/g kidney was 8.1 × 10^3 CFU/g kidney and the “CFU/g kidney, % of control” value is reported as 55 % of control.

Take `Clc1ccc(C(Cn2ccnc2)=NNc2cc(Cl)cc(Cl)c2)cc1` [HC 346, 1-(4-chlorophenyl)-2-(1H-imidazol-1-yl) ethanone, 3,5-dichlorophenylhydrazone]: the IC50 in series [1] (setting [5]) turned out to be 2.7 µM.

For `Clc1ccccc1C(c1ccccc1)(c1ccccc1)n1ccnc1` [Clotrimazole, 1-(2-Chlorophenyl)diphenylmethyl-1H-imidazole, reference compound], the LD50 at 168 h in the series “in vivo” (mouse, in vivo, iv) was found to be 10 mg/kg. In addition, the LD12.5 in the series “in vivo” (p.o., male mice, 7 day) is listed as 500 mg/kg. Moreover, the “Disease rating (degree of hair loss, erythema, desquamation, Max. = 100)” value was 51.9 in series [2] (setting [6]) and 100 in series [2] (setting [7]). The “Clearance of C. albicans from rat vagina (as percentage of control)” value in the series on C. albicans [4] (setting [8]) is reported as 100 percentage of control.

Take `CC(=O)N1CCN(c2ccc(OCC3COC(Cn4ccnc4)(c4ccc(Cl)cc4Cl)O3)cc2)CC1` (stereo not drawn) [Ketoconazole, cis-1-Acetyl-4-[4-[[2-(2,4-dichlorophenyl)-2-(1H-imidazol-1-yl-methyl)-1,3-dioxolan-4-yl]methoxy]piperazine, reference compound]: the “Recovery of C.albicans (as percentage of control)” value was 51.0 percentage of control in the series on candida albicans (5 mg/kg) and 11.7 percentage of control in the series with candida albicans (20 mg/kg). For the same compound, the “Disease rating (degree of hair loss, erythema, desquamation, Max. = 100)” value in series [2] (20 mg/kg p.o., day 5 after infection) is listed as 100; in series [2] (20 mg/kg p.o., day 10 after infection), 63.7; in series [2] (setting [6]) it was 56.4; in series [2] (setting [7]), 100. The “Clearance of C. albicans from rat vagina (as percentage of control)” value in the series on C. albicans [4] (oral, 10 mg/kg once daily for 3 days) is on record as 99.9 percentage of control; with C. albicans [4] (setting [8]) it was 99.9 percentage of control.

In the case of `Clc1ccc(C(Cn2ccnc2)=NNc2ccccc2)cc1` [HC 290, 1-(4-Chlorophenyl)-2-(1H-imidazol-1-yl)ethanone, phenylhydrazone, hydrochloride], the IC50 in series [1] (setting [5]) is 4.9 µM.

Consider `Cl.Fc1c(F)c(F)c(N/N=C(\Cn2ccnc2)c2ccc(Cl)cc2)c(F)c1F` [HC415, (Z)-1-(4-chlorophenyl)-2-(1H-imidazol-1-yl)ethanone, 2,3,4,5,6-pentafluorophenylhydrazone hydrochloride], for which the “Recovery of C.albicans (as percentage of control)” value with candida albicans (5 mg/kg) is recorded as 14.0 percentage of control; in the series on candida albicans (20 mg/kg), 17.2 percentage of control.

Take `Clc1ccc(COC(Cn2ccnc2)c2ccc(Cl)cc2Cl)c(Cl)c1` (centres unmarked) [Miconazole, 1-[2-(2,4-Dichlorophenyl)-2-[(2,4-dichlorophenyl)methoxy]ethyl]-1H-imidazole]: the “No. of CFU/g kidney at 48 h” value is listed as 9 × 10^2 CFU/g kidney with C. albicans [3] (i.v.) and 1.4 × 10^3 CFU/g kidney in the series with C. albicans [3] (p.o.). In addition, in “in vivo” (mouse, in vivo, iv, male mice, 7 day, read-out: LD50), the median lethal dose (LD50) at 168 h came to 80 mg/kg. Besides, the LD12.5 in “in vivo” (p.o., male mice, 7 day) is on record as more than 500 mg/kg.

As for `Fc1ccccc1C(Cn1ccnc1)=NNc1ccc(Cl)cc1Cl` [HC 426, 1-(2-fluorophenyl)-2-(1H-imidazol-1-yl)ethanone, 2,4-dichlorophenylhydrazone, hydrochloride], the IC50 in series [1] (setting [5]) is 5.5 µM.

For the compound `FC(F)(F)c1ccccc1C(Cn1ccnc1)=NNc1c(Cl)cccc1Cl` [HC 418, 1-(2-trifluoromethylphenyl)-2-(1H-imidazol-1-yl)ethanone, 2,6-dichlorophenylhydrazone, hydrochloride], in series [1] (setting [5]), the IC50 turned out to be 20.9 µM.

Turning to `Clc1ccc(/C(Cn2ccnc2)=N\Nc2ccccc2Cl)cc1` [HC 500, (E)-1-(4-chlorophenyl)-2-(1H-imidazol-1-yl)ethanone, 2-chlorophenylhydrazone, hydrochloride], the IC50 in series [1] (setting [5]) was more than 80 µM.

In the case of `Clc1ccccc1C(Cn1ccnc1)=NNc1c(Cl)cccc1Cl` [HC 365, 1-(2-chlorophenyl)-2-(1H-imidazol-1-yl)ethanone, 2,6-dichlorophenylhydrazone, hydrochloride], in series [1] (setting [5]), the IC50 was 3.6 µM.

For the compound `Clc1ccc(C(Cn2ccnc2)=NNc2c(Cl)cccc2Cl)c(Cl)c1` [HC 377, 1-(2,4-dichlorophenyl)-2-(1H-imidazol-1-yl)ethanone, 2,6-dichlorophenylhydrazone, hydrochloride], the IC50 in series [1] (setting [5]) stood at 2.7 µM.

For the origin of these results see patent US4351948A, “Imidazole hydrazone derivatives” (priority 1980, dated 1982).
